From the NIST ThermoML archive (doi:10.1016/j.tca.2013.03.013)
± gives the expanded uncertainty stated by the source.

Settings: Crystal

CC1(C)O[C@@H]2C[C@H]3[C@@H]4C[C@H](F)C5=CC(=O)C=C[C@]5(C)[C@@]4(F)[C@@H](O)C[C@]3(C)[C@]2(C(=O)CO)O1 [fluocinolone acetonide]
Normal melting temperature (DTA): 261.4 ± 0.7 °C
Normal melting temperature (visual observation): 262.00 ± 0.5 °C
